Assay results from US20250281397A1, “FORMULATIONS OF A PLASMA KALLIKREIN INHIBITOR” (KALVISTA PHARMACEUTICALS LIMITED, priority 2022, published 2025).

Tests used:
[1] = Phase 1 trial: single-dose 3-way crossover pharmacokinetic study, ODT vs film-coated tablets; assay type: in vivo, human; settings: single doses of 500 mg or 600 mg in ODT or FCT, healthy adult participants
Experimental: This study was an open label, randomized, single-dose, 3-way crossover pharmacokinetic study.
Thirty-six (36) healthy, adult, male and female subjects were enrolled.
The film coated tablets were those used in the phase 2 study described herein (NCT04208412).
There was a washout period of at least 4 days between the dose in Period 1 and Period 2 and the dose in Period 2 and Period 3.
An analysis of variance (ANOVA) was performed on the natural log (ln) transformed AUC0-t, AUC0-inf, AUC% extrap and Cmax, using the appropriate statistical procedure.

[2] = swallowable tablet, NCT04208412; cited from earlier work
[3] = Plasma concentration after oral administration; assay type: in vivo; settings: following administration of a dosage amount of at least about 60 mg
[4] = BCS classification (ICH M9); assay type: physicochemical; settings: ICH guideline M9
Excerpt: BCS class IV drugs are considered to be poorly soluble and poorly permeable meaning that they are likely to have poor oral bioavailability and/or the oral absorption may be so low that they cannot be given by the oral route. Due to their numerous unfavourable characteristics, BCS class IV drugs are particularly challenging to formulate as oral dosage forms and in particular as ODTs. Indeed, ODTs of BCS class IV drugs are not generally known in the art.

[5] = literature / authorised label; cited from earlier work
[6] = reported by Chilcote and Sinha, ARVO 2012; cited from earlier work

In the case of `COCc1nn(Cc2ccc(Cn3ccccc3=O)cc2)cc1C(=O)NCc1nccc(OC)c1F` [KVD900, N-[(3-fluoro-4-methoxypyridin-2-yl)methyl]-3-(methoxymethyl)-1-({4-[(2-oxopyridin-1-yl)methyl]phenyl}methyl) pyrazole-4-carboxamide], the safety and tolerability [1] is given as “well tolerated”, the “phase 2 efficacy and safety endpoints” value [2] is given as “met all of its phase 2 efficacy and safety endpoints” and the “concentration of KVD900 in plasma” value [3] is given as “at least 500 ng/ml”. For the same molecule, the BCS classification [4] was “BCS class IV”.

For `N#Cc1cccc([C@@H](NCC2CC2)c2ccc(F)c(NC(=O)c3cc(C(F)(F)F)nn3-c3cccc(CN)c3)c2)c1` [Berotralstat, reference compound], the reported adverse reactions [5] is given as “higher doses were associated with more gastrointestinal adverse effects”.

In the case of Ecallantide, the reported adverse reactions [5] is given as “risks of anaphylactic reactions”.

For `N=C(N)c1ccc(CNC(=O)c2cnn(Cc3ccccc3)c2)cc1` [ASP-440], the oral availability [6] is listed as “poor oral availability”.

B1: lanadelumab: recombinant fully human IgG1 kappa light chain monoclonal antibody, plasma kallikrein inhibitor (antibody, chains of the INN, looked up, V domains shown)
VH: EVQLLESGGGLVQPGGSLRLSCAASGFTFSHYIMMWVRQAPGKGLEWVSGIYSSGGITVYADSVKGRFTISRDNSKNTLYLQMNSLRAEDTAVYYCAYRRIGVPRRDEFDIWGQGTMVTVSS
VL: DIQMTQSPSTLSASVGDRVTITCRASQSISSWLAWYQQKPGKAPKLLIYKASTLESGVPSRFSGSGSGTEFTLTISSLQPDDFATYYCQQYNTYWTFGQGTKVEIK
In the case of B1, the reported adverse reactions [5] is listed as “hypersensitivity, injection site pain, injection site erythema, and injection site bruising”.
